Counter-ions that a name gives are not always drawn. Like-named read-outs stand apart in the source and are kept apart here.
How the values were obtained:
[1] = test system: LAV strain of HIV; experiment: Assay of anti-HIV activity: HIV production in infected MT-4 cells; assay type: cell-based; conditions: in the dark, result in words
[2] = test system: Herpes simplex virus (HSV) type 1, strain WT-51; experiment: Anti-HSV activity: virus infectivity in culture fluid of infected BS-C-40 monolayers by plaque method; assay type: cell-based; conditions: m.o.i. 0.01, 18 hours of incubation, result in words
Procedure: Herpes simplex virus (HSV) type 1, strain WT-51, and BS-C-40, an African green monkey kidney cell line, were used. HSV stock was prepared in BS-C-40 and the infectivity of the virus was measured on BS-C-40 monolayers by plaque method. Eagle's minimal essential medium (MEM) supplemented with 8% newborn calf serum was used as the culture medium and cells were incubated at 37°C in a humidified CO₂-incubator (5% CO₂, 95% air).
BS-C-40 monolayers were infected with HSV at the m.o.i. of 0.01 at 37°C for 1 hour and the monolayers were washed with MEM, and fresh culture medium was added. After 18 hours of incubation in the presence or absence of protoporpyrin, the virus infectivity in the culture fluid was measured by plaque method.
Two tenths ml aliquots of serially 10-fold diluted virus were inoculated onto confluent monolayer of cells in 35 mm plastic petridishes. After adsorption of the virus at 37°C for 1 hour, the monolayers were overlaid with 2 ml of MEM with 1% methylcellulose and 2% newborn calf serum. On day 3, the monolayers were stained with neutral red and plaque counts were made.

[3] = mouse, cited from earlier work
[4] = intravenous, rat; cited from earlier work
[5] = intravenous, rabbit; cited from earlier work
[6] = intravenous, cat; cited from earlier work

**Q.** With `C=CC1=C(C)c2cc3[nH]c(cc4nc(cc5[nH]c(cc1n2)c(C)c5CCC(=O)O)C(CCC(=O)O)=C4C)c(C)c3C=C` [Protoporphyrin disodium salt] as the compound, how does the “anti-HIV activity (antivirally active when production of HIV was reduced as compared with the control)” value [1] read?
**A.** potent anti-HIV activity

**Q.** What about the anti-HSV activity [2] of the same compound?
**A.** no anti-HSV activity

**Q.** What about the LD₅₀ ([3]; intraperitoneal) of the same compound?
**A.** 1,028.6 mg/kg

**Q.** What about the LD₅₀ ([3]; intravenous) of the same compound?
**A.** 347.3 mg/kg

**Q.** And the LD₅₀ ([3]; oral)?
**A.** > 25,000.0 mg/kg

**Q.** And the LD₅₀ ([3]; subcutaneous)?
**A.** 1,147.0 mg/kg

**Q.** What about the LD₅₀ [4] of the same compound?
**A.** 240.3 mg/kg

**Q.** What about the LD₅₀ [5] of the same compound?
**A.** 220.0 mg/kg

**Q.** What about the LD₅₀ [6] of the same compound?
**A.** 215.5 mg/kg

From patent publication EP0337598A2, “Use of porphyrins and metalloporphyrins in the treatment of diseases caused by Human Immunodeficiency Viruses” (GEORGIA STATE UNIVERSITY FOUNDATION, INC., priority 1988, dated 1989)
